Assay results reported in ChEMBL document CHEMBL1201862, “PubChem BioAssay data set” (2004).
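48-hour exposure; five concentrations; linearly interpolated endpoints. GI50 = concentration required for 50% inhibition of growth.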 The source made the active and inactive calls. Cut-off read from the data, not from the text of the source: active = GI50 up to about 1.1 µM and inactive = higher.

Legend:
Test in all cases: NCI anticancer screen, dose series, 48 h
NCI-H460 = tested on: NCI-H460
KM12 = tested on: KM12
MDA-N = tested on: MDA-N
UACC-257 = tested on: UACC-257
LOX IMVI = tested on: LOX IMVI
OVCAR-4 = tested on: OVCAR-4
IGROV-1 = tested on: IGROV-1
HCC 2998 = tested on: HCC 2998
U-251 = tested on: U-251
UO-31 = tested on: UO-31
RPMI-8226 = tested on: RPMI-8226
HL-60 = tested on: HL-60
HCT-116 = tested on: HCT-116
SF-295 = tested on: SF-295
786-0 = tested on: 786-0
Malme-3M = tested on: Malme-3M
RXF 393 = tested on: RXF 393
TK-10 = tested on: TK-10
SN12C = tested on: SN12C
HOP-62 = tested on: HOP-62

Measured: GI50

CN(C)CCn1nc(N)c2nc3cc(C(F)(F)F)ccc3nc21
inactive: NCI-H460 51.4 µM | KM12 > 100 µM | MDA-N > 100 µM | UACC-257 > 100 µM | LOX IMVI 54.8 µM | OVCAR-4 > 100 µM | IGROV-1 41.5 µM | HCC 2998 75.9 µM | U-251 > 100 µM | UO-31 31.3 µM | RPMI-8226 > 100 µM | HL-60 34.6 µM | HCT-116 > 100 µM | SF-295 > 100 µM | 786-0 > 100 µM | Malme-3M > 100 µM | RXF 393 26.4 µM | TK-10 > 100 µM | SN12C > 100 µM | HOP-62 57.4 µM
